Experimental data as given in patent publication US5387614A, “Use of sigma receptor ligands as salivary gland stimulants” (University of Iowa Research Foundation, priority 1993, dated 1995).
Blank lines part the entries; values can stand above or below the compound they belong to.

How the values were obtained:
sigma-binding site = experiment: 3H-DTG radioligand saturation binding (Scatchard plot) in submaxillary gland membrane homogenate; set-up: species or system New Zealand white rabbits; conditions: single binding site; membrane homogenate of acini cells from rabbit submaxillary gland; 4° C., 60 min; spiperone 25 nM
Protocol: In this procedure, New Zealand white rabbits were sacrificed using 1/2-1 ml of Beuthanasia-D Special (Schering Plough Animal Health, Keniworth, N.J.: 390 mg pentobarital sodium and 50 mg phenytoin sodium per ml) by injecting the preparation into the marginal ear vein. Whole submaxillary glands, free of blood, were dissected and either used immediately or frozen in cold 100 mM tris-HCl (pH 7.4) buffer. Glandular tissue was rinsed with cold 50 mM Tris-HCl (pH 7.4) followed by homogenization for 30 sec (Polytron, Brinkman Instr., setting 7). The homogenate was centrifuged at 800 rpm for 10 min at 4° C. to remove extraneous tissue. Then the supernatant was centrifuged at 75,000 Xg for 15 min at 4° C. (model L8-55, Preparative Ultracentrifuge, Beckman Instruments, Fullerton, Calif.). Following centrifugation, the pellet was homogenized again in 100 mM tris-HCl buffer and centrifuged at 75,000 Xg for 15 min. The resulting pellet containing the membrane fragments was suspended in Tris-HCl buffer to yield a concentration of 250 mg (wet wt) per mL. […]
Spiperone (25 nM) was added to prevent binding to D2 dopamine or 5HT2 serotonin receptors. […] The filter, containing the precipitate, was transferred to a scintillation vial containing 1 mL of tissue solubilizer (Soluene 350, Packard Inst.) and 4 mL of scintillation fluid (Budget Solve , Fisher Scientific, Fair Lawn, N.J.) and counted (Beckman LS 3801). […]

sigma receptors = experiment: Radioligand competition experiments in submaxillary gland membrane homogenate; format: binding, New Zealand white rabbits; conditions: radioligand 3H-DTG (5 nM); rabbit submaxillary gland membranes; 4° C., 60 minutes; spiperone 25 nM; mean ± spread; read-out: averaged IC50
Protocol: In this procedure, New Zealand white rabbits were sacrificed using 1/2-1 ml of Beuthanasia-D Special (Schering Plough Animal Health, Keniworth, N.J.: 390 mg pentobarital sodium and 50 mg phenytoin sodium per ml) by injecting the preparation into the marginal ear vein. Whole submaxillary glands, free of blood, were dissected and either used immediately or frozen in cold 100 mM tris-HCl (pH 7.4) buffer. Glandular tissue was rinsed with cold 50 mM Tris-HCl (pH 7.4) followed by homogenization for 30 sec (Polytron, Brinkman Instr., setting 7). The homogenate was centrifuged at 800 rpm for 10 min at 4° C. to remove extraneous tissue. Then the supernatant was centrifuged at 75,000 Xg for 15 min at 4° C. (model L8-55, Preparative Ultracentrifuge, Beckman Instruments, Fullerton, Calif.). Following centrifugation, the pellet was homogenized again in 100 mM tris-HCl buffer and centrifuged at 75,000 Xg for 15 min. […]
Spiperone (25 nM) was added to prevent binding to D2 dopamine, or 5HT2 serotonin receptors. […] The filter along with the adhering precipitate was transferred to a scintillation vial containing 1 mL of tissue solubilizer (Soluene 350, Packard Inst., Downers Grove, Ill.) and 4 mL of scintillation fluid (Budget Solve , Fisher Scientific, Fair Lawn, N.J.) and counted (Beckman LS 3801). […] Specific binding was determined by subtracting NSB from total binding. […]

salivary secretion = experiment: Saliva flow observed after topical dosing of the rabbit eye; format: in vivo; conditions: rabbit eye dosed topically (use as dry eye syndrome treatment)
From the text: The observations of effective salivary stimulation actually occurred during use of the most preferred compound wherein N=2, and R and R" are methyl, as dry eye syndrome treatment. […] This led to further investigations of this and other compounds as a means of treating dry mouth associated with, for example, Sjogren's syndrome. The present compound for example could be formulated into a conventional lozenge for a topical application directly in the oral cavity to stimulate saliva flow. Such lozenges can either be made by dissolving the drug in water, adding powdered sugar, flavor and a gum (e.g., 7% powdered acacia) to give sufficient adhesiveness. This type of lozenge is harder than a conventional tablet, but dissolves slowly. The lozenge formulation is made by compressing the formula on a tablet press according to the art.

SMILES: Cc1ccccc1NC(=N)Nc1ccccc1C [3H-DTG]
Kd (sigma-binding site): 6 ± 1.2 nM

IC50 (sigma receptors): 690 ± 276 nM
SMILES: CN(Cc1cc(Br)cc(Br)c1N)C1CCCCC1 [bromhexine]

SMILES: CN(C)CCc1ccccc1 [most preferred compound, N,N-dimethyl-2-phenylethylamine]
saliva flow (salivary secretion): copious amounts of saliva flowed from about one half of the rabbits
